The source of these data is patent US4005217A, “Treatment of helminth infections with substituted phenyl-thiourea derivatives” (May & Baker Limited, priority 1970, dated 1977).

In brackets after ≈: the same amount, converted by molar mass. Where a name gives a salt, the structure may show the parent alone.

Assay [1] deals with Nippostrongylus brasiliensis. Description: Test 2: activity against roundworms in rats, treatment 24 hours after infection, worm counts 6 days after dosing. The class given is in vivo. The following applies: rats; for inhibition in vivo at 1000 mg/kg / worm damage: Test 2, 1000 mg/kg oral. The procedure: Test 2 -- Rats were infected with 100 Nippostrongylus brasiliensis larvae each, by the subcutaneous route. After 24 hours the rats were randomised and allotted to groups of 5 animals each, ready for treatment. Doses of the test compound were then administered to each group by the oral, subcutaneous and intraperitoneal routes respectively, one group of 10 animals being left untreated as a control. All the rats were killed for post-mortem worm counts 6 days after dosing. The activities, expressed in terms of the percentage reductions in mean worm load of the treated groups or damage to the worms compared with the untreated control group, are given below in Table I.

The test system of assay [2] is Nippostrongylus brasiliensis eggs. Description: In vitro activity against roundworms (egg hatching and larvae). The format is cell-based. The following applies: 96 h, tested at 100, 10, 1 and 0.1 μg/ml, inhibited or delayed hatching of eggs, or killed, retarded growth or reduced activity of larvae during 4 days, read-out: M.I.C. (minimum inhibitory concentration). How it is done:
Compounds of formula I were tested at concentrations of 100 μg/ml, 10 μg/ml, 1 μg/ml and 0.1 μg/ml in small glass containers. If the compound was not soluble in water, a volatile organic medium, e.g. acetone, chloroform, ethanol or methanol was used. An amount of material appropriate for each final concentration was measured and placed in duplicate test containers and if an organic solvent was used it was allowed to evaporate completely. Nippostrongylus brasiliensis eggs were recovered by saturated saline centrifugal flotation from the faeces of rats heavily infected with third stage larvae six days previously. They were washed several times in water and suspended in water in a suitable concentration. From 25-50 eggs were placed in each container and the final volume was made up by the addition of a very dilute aqueous suspension of mouse faeces which served as the growth medium. The minimum inhibitory concentrations of each compound (M.I.C.), shown in the following Table V was the minimum concentration in μg/ml total liquid volume at which it inhibited or delayed hatching of eggs, or at which it killed, retarded growth or reduced activity of larvae during the 4 days after beginning the test.

Assay [3] concerns influenza virus type A2 /Hong Kong/5/68. The format is in vivo. Particulars: mice, 250 mg/kg oral 3 hours before and 1 hour after infection; pooled lungs 24 hours after infection; greatest dilution producing agglutination.
Assay [4] relates to Nippostrongylus brasiliensis. Briefly: Test 1: activity against roundworms in rats, treatment 6 days after infection (patent infection), worm counts 48 hours after treatment. The format is in vivo. The following applies: Test 1, 1000 mg/kg oral; for inhibition in vivo at 1000 mg/kg: Nippostrongylus brasiliensis, po, 48 h, read-out: Percentage reduction in N.brasiliensis load. The procedure: Test 1 - Rats were infected with 100 Nippostrongylus brasiliensis larvae each, by the subcutaneous route. After 6 days, when the infection was patent, the rats were randomised and alloted to groups of 10 animals each, ready for treatment. One group was used for each dose level of the test compound and, in each experiment, one group was left untreated as a control. All the rats were killed for post-mortem worm counts 48 hours after treatment. The activity, expressed in terms of the percentage reduction in mean worm load of the treated group compared with the untreated group, is shown in Table I.

The subject of another assay is Haemonchus contortus. Description: Activity against mature adult stages in lambs, oral treatment (Table III). The class given is in vivo. Particulars: 120 h, 15 mg/kg oral, read-out: Mean percentage reduction in worm burdens, H.contortus. The procedure: (§1) ii. 20 Worm-free lambs were each infected with H. contortus (approximately 5,600), T. axei (approximately 9,300) and T. colubriformis (approximately 10,000) infective larvae. After 22 days, 16 lambs were treated orally with 15 mg/kg animal body weight of the 8 test compounds, i.e. 2 lambs per compound, against the mature adult stages of the worms. 27 Days after infection, all 20 lambs were killed for post-mortem worm counts and the burden of each worm species in the 16 treated animals compared with those in the remaining 4 untreated control animals.

Another assay has as its system Trichostrongylus axei. The assay is described as above. Particulars: 120 h, 15 mg/kg oral, read-out: Mean percentage reduction in worm burdens, T.axei. The format is in vivo. The procedure: as §1
For assay [5], the system named is Trichostrongylus colubriformis. The description is as above. The class given is in vivo. The following applies: 120 h, 15 mg/kg oral, read-out: Mean percentage reduction in worm burdens, T.colubriformis. How it is done:
as §1

The test system of assay [6] is naturally acquired strongyle infections. Briefly: Effect on faecal egg output in naturally infected sheep (ewes). The following applies: 50 mg/kg oral. The class given is in vivo, O. circumcincta, H. contortus and Cooperia spp. How it is done:
Faecal material from sheep with naturally acquired strongyle infections was incubated for 7 days at 27° C. followed by identification of the infective larvae present. Amongst those species present were O. circumcincta, H. contortus and Cooperia spp.
Egg counts were carried out on individual samples of faeces taken from the animals two and one day previous to dosings.
Egg counts were made using the McMaster technique. If a count by this technique was negative, a positive/negative egg flotation determination was made.
A group of 3 ewes was treated orally with 50 mg/kg animal body weight of test compound and further egg counts made at intervals for 3 weeks after treatment.

[7] abbreviates: Nippostrongylus brasiliensis, 144 h, read-out: Percentage reduction in N.brasiliensis load.

For the molecule `Nc1ccccc1NC(=S)NC(=O)OCCCl` [1-(2-chloroethoxycarbonyl)-3-(2-aminophenyl)thiourea], in assay [1] (setting [7]), the inhibition in vivo at 1000 mg/kg is 96%. The worm damage result in assay [1] is on record as “worm damage”. Further, in assay [2], the MIC came out at 100 µg/mL (≈ 365 µM). Besides, the Haemagglutinin titre-treated animals in assay [3] is listed as 1/32.
As for `CCCCN(C)CC(=O)Nc1ccccc1NC(=S)NC(=O)OCC` [1-ethoxycarbonyl-3-(2-N-n-butyl-N-methylaminoacetamidophenyl)thiourea hydrochloride], the figures for the inhibition in vivo at 1000 mg/kg in assay [4] and in assay [1] (setting [7]) were 86% and 99%, respectively. For the same molecule, the worm damage entry in assay [4] and in assay [1] was “worm damage” throughout. Also, in assay [2], the MIC came to 1 µg/mL. Besides, the Haemagglutinin titre-treated animals in assay [3] was 1/4.
For `CCOC(=O)NC(=S)Nc1cc(NC(=O)OC(C)C)ccc1NC(C)=O` [1-ethoxycarbonyl-3-(2-acetamido-5-isopropoxycarbonylaminophenyl)thiourea], the Haemagglutinin titre-treated animals in assay [3] is listed as 1/256.
Turning to `CCOC(=O)NC(=S)Nc1ccc(F)cc1N` [1-ethoxycarbonyl-3-(2-amino-4-fluorophenyl)thiourea], the inhibition in vivo at 1000 mg/kg in assay [1] (setting [7]) turned out to be 50%. Also, the worm damage result in assay [1] is “worm damage”. Also, the MIC in assay [2] is 1 µg/mL (≈ 3.89 µM). Besides, in assay [3], the Haemagglutinin titre-treated animals is 1/32.
Consider `COC(=O)NC(=S)Nc1ccc(NC(=O)OC(C)C)cc1NC(C)=O` [1-methoxycarbonyl-3-(2-acetamido-4-isopropoxycarbonylaminophenyl)thiourea], for which, in assay [3], the Haemagglutinin titre-treated animals was 1/256.
Still for that read-out and setting: the same measure for `COC(=O)NC(=S)Nc1cc(NC(=O)OC(C)C)ccc1NC(C)=O` [1-methoxycarbonyl-3-(2-acetamido-5-isopropoxycarbonylaminophenyl)thiourea]: 1/128.
For `CCCCc1ccc(NC(C)=O)c(NC(=S)NC(=O)OC)c1` [1-methoxycarbonyl-3-(2-acetamido-5-n-butylphenyl)thiourea], the worm damage result in assay [4] and in assay [1] was “worm damage” each time. In addition, the inhibition in vivo at 1000 mg/kg in assay [1] (setting [7]) amounted to 99%. Moreover, the values for the inhibition in vivo at 15 mg/kg (in the assay on Haemonchus contortus; with Trichostrongylus axei; in assay [5]) were 82.1%, 98.2% and 95%, respectively. In addition, the MIC in assay [2] is 0.1 µg/mL (≈ 0.309 µM).
For `COC(=O)NC(=S)Nc1ccc(NC(=O)OC)cc1N` [1-methoxycarbonyl-3-(2-amino-4-methoxycarbonylaminophenyl)thiourea], the inhibition in vivo at 1000 mg/kg in assay [4] and in assay [1] (setting [7]) was 100% in each case. Moreover, the inhibition in vivo at 250 mg/kg in assay [1] (Nippostrongylus brasiliensis, 144 h, Test 2, 250 mg/kg oral, read-out: Percentage reduction in N.brasiliensis load) worked out at 99%. In addition, the inhibition in vivo at 500 mg/kg in assay [1] (Nippostrongylus brasiliensis, 144 h, Test 2, 500 mg/kg oral, read-out: Percentage reduction in N.brasiliensis load) is 99%. The MIC in assay [2] was 100 µg/mL (≈ 335 µM). In addition, the Haemagglutinin titre-treated animals in assay [3] is 1/512.
As to `COC(=O)NC(=S)Nc1ccccc1N` [1-methoxycarbonyl-3-(2-aminophenyl)thiourea], in assay [4], the “Percentage reduction in N.brasiliensis load” value is 99%. For the same molecule, the worm damage result in assay [4] was “worm damage”. The “Mean faecal egg count/gm. faeces” value is on record as 450 /gm. faeces in assay [6] (1 day after treatment); 250 /gm. faeces in assay [6] (2 days before treatment (baseline)); 250 /gm. faeces in assay [6] (4 days after treatment); 50 /gm. faeces in assay [6] (6 days after treatment); 134 /gm. faeces in assay [6] (8 days after treatment); 75 /gm. faeces in assay [6] (15 days after treatment). The figures for the “Mean faecal egg count/gm. faeces” value in assay [6] (18 days after treatment), in assay [6] (20 days after treatment) and in assay [6] (22 days after treatment) were 100 /gm. faeces, 50 /gm. faeces and 50 /gm. faeces, respectively. For the same molecule, in assay [2], the MIC came to 0.1 µg/mL (≈ 0.444 µM).
On to `CCCCc1ccc(NC(=O)C2CC2)c(NC(=S)NC(=O)OC)c1` [1-methoxycarbonyl-3-(2-cyclopropylcarbonamido-5-n-butylphenyl)thiourea], for which, in assay [2], the MIC turned out to be 0.1 µg/mL (≈ 0.286 µM). The Haemagglutinin titre-treated animals in assay [3] is 1/128.
Turning to `COC(=O)NC(=S)Nc1ccc(NC(=O)OC(C)C)cc1NC=O` [1-methoxycarbonyl-3-(2-formamido-4-isopropoxycarbonylaminophenyl)thiourea], the inhibition in vivo at 15 mg/kg stood at 40.1% in the assay with Haemonchus contortus, 70.8% in the assay with Trichostrongylus axei and 29.6% in assay [5].
With `COC(=O)NC(=S)Nc1ccccc1NC(=O)C[N+](C)(C)C` [1-methoxycarbonyl-3-(2-trimethylammoniumacetamidophenyl)thiourea iodide], the worm damage entry in assay [1] is recorded as “worm damage”. The MIC in assay [2] is 1 µg/mL. In assay [3], the Haemagglutinin titre-treated animals is recorded as 1/256.
Regarding `COC(=O)NC(=S)Nc1cc(NC(=O)OC(C)C)ccc1NC=O` [1-methoxycarbonyl-3-(2formamido-5-isopropoxycarbonylaminophenyl)thiourea], in assay [3], the Haemagglutinin titre-treated animals was 1/256.
For the molecule `CCCCc1ccc(NC(=S)NC(=O)OC)c(NC(=O)C2CC2)c1` [1-methoxycarbonyl-3-(4-n-butyl-2-cycloproplycarbonamidophenyl)thiourea], the inhibition in vivo at 15 mg/kg came out at 58.4% with Haemonchus contortus, 57.6% with Trichostrongylus axei and 27.1% in assay [5]. Further, in assay [2], the MIC worked out at 0.1 µg/mL (≈ 0.286 µM).
On to `CCCCc1ccc(NC(=S)NC(=O)OC)c(NC=O)c1` [1-methoxycarbonyl-3-(4-n-butyl-2-formamidophenyl)thiourea], for which the inhibition in vivo at 15 mg/kg in the assay on Haemonchus contortus turned out to be 84.3%; in the assay with Trichostrongylus axei, 84.2%; in assay [5], 36.9%. Besides, in assay [2], the MIC is 0.1 µg/mL (≈ 0.323 µM).
Consider `CCCCc1ccc(NC=O)c(NC(=S)NC(=O)OC)c1` [1-methoxycarbonyl-3-(5n-butyl-2-formamidophenyl)thiourea], for which, in assay [1] (setting [7]), the inhibition in vivo at 1000 mg/kg came out at 96%. In assay [1], the worm damage result is reported as “worm damage”. For the same molecule, the MIC in assay [2] is 0.1 µg/mL (≈ 0.323 µM). In assay [3], the Haemagglutinin titre-treated animals was 1/32.
`COC(=O)NC(=S)Nc1ccccc1NC(=O)CCN(C)C.Cl` [1-methoxycarbonyl-3-[2-(3-dimethylaminopropionamido)phenyl]thiourea hydrochloride]: the results for the inhibition in vivo at 1000 mg/kg in assay [4] and in assay [1] (setting [7]) were 20% and 98%, respectively. The worm damage entry in assay [4] and in assay [1] was “worm damage” each time. The MIC in assay [2] was 1 µg/mL.
For the molecule `C#CCOC(=O)NC(=S)Nc1ccccc1N` [1-propargyloxycarbonyl-3-(2-aminophenyl)thiourea], in assay [4], the inhibition in vivo at 1000 mg/kg stood at 76% and the worm damage result is recorded as “worm damage”. Besides, in assay [1] (setting [7]), the inhibition in vivo at 1000 mg/kg stood at 100%. Further, the MIC in assay [2] was determined as 1 µg/mL (≈ 4.01 µM).
